Test results taken from ChEMBL document CHEMBL4184197 (Bioorg Med Chem, 2018).

Tests used:
L-type calcium channel = L-type calcium channel (Homo sapiens, UniProt O60840+Q01668+Q13698+Q13936); assay: Binding affinity to L-type calcium channel (unknown origin) at 10 uM relative to control; format: protein assay; conditions: read-out: Activity
Salmonella typhimurium [1] = assay: Mutagenicity in Salmonella typhimurium TA100 in presence of rat liver S9 fraction by Ames test; format: toxicity, organism-based; conditions: salmonella enterica subsp. enterica serovar typhimurium
Salmonella typhimurium [2] = assay: Mutagenicity in Salmonella typhimurium TA100 in absence of rat liver S9 fraction by Ames test; format: toxicity, organism-based; conditions: salmonella enterica subsp. enterica serovar typhimurium
Salmonella typhimurium [3] = assay: Mutagenicity in Salmonella typhimurium TA1535 in presence of rat liver S9 fraction by Ames test; format: toxicity, organism-based; conditions: salmonella enterica subsp. enterica serovar typhimurium
CHO-K1 [4] = assay: Genotoxicity in CHOK1 cells in presence of rat liver S9 fraction by fluorescence imaging based micronucleus assay; format: toxicity, cell-based, Cricetulus griseus; conditions: chinese hamster
CHO-K1 [5] = assay: Genotoxicity in CHOK1 cells in absence of rat liver S9 fraction by fluorescence imaging based micronucleus assay; format: toxicity, cell-based, Cricetulus griseus; conditions: chinese hamster
[6] = biological target: Adrenergic receptor alpha-2 (Homo sapiens) (UniProt P08913+P18825+P18089); assay: Binding affinity to alpha2 receptor (unknown origin) at 10 uM relative to control; format: protein assay
[7] = biological target: Type-1 angiotensin II receptor (Homo sapiens) (UniProt P30556); assay: Binding affinity to recombinant human AT1 receptor at 10 uM after 120 mins by scintillation counting analysis relative to control
[8] = biological target: Beta-2 adrenergic receptor (Homo sapiens) (UniProt P07550); assay: Binding affinity to recombinant human beta 2 adrenoceptor at 10 uM after 120 mins by scintillation counting analysis relative to control
[9] = biological target: Calcitonin gene-related peptide type 1 receptor (Homo sapiens) (UniProt Q16602); assay: Binding affinity to recombinant human CGRP at 10 uM after 90 mins by scintillation counting analysis relative to control
[10] = biological target: Galanin receptor type 1 (Homo sapiens) (UniProt P47211); assay: Binding affinity to recombinant human GAL1 receptor at 10 uM after 120 mins by scintillation counting analysis relative to control
[11] = biological target: C-X-C chemokine receptor type 2 (Homo sapiens) (UniProt P25025); assay: Binding affinity to recombinant human CXCR2 receptor at 10 uM after 60 mins by scintillation counting analysis relative to control
[12] = biological target: Muscarinic acetylcholine receptor M1 (Homo sapiens) (UniProt P11229); assay: Binding affinity to recombinant human muscarinic M1 receptor at 10 uM after 60 mins by scintillation counting analysis relative to control
[13] = biological target: Muscarinic acetylcholine receptor M2 (Homo sapiens) (UniProt P08172); assay: Binding affinity to muscarinic M2 receptor (unknown origin)
[14] = biological target: Neuropeptide Y receptor type 2 (Homo sapiens) (UniProt P49146); assay: Binding affinity to human Y2 receptor at 10 uM after 60 mins by scintillation counting analysis relative to control
[15] = biological target: Kappa-type opioid receptor (Homo sapiens) (UniProt P41145); assay: Binding affinity to human kappa opioid receptor at 10 uM after 60 mins by scintillation counting analysis relative to control
[16] = biological target: Pituitary adenylate cyclase-activating polypeptide type I receptor (Homo sapiens) (UniProt P41586); assay: Binding affinity to recombinant human PACAP receptor at 10 uM after 120 mins by scintillation counting analysis relative to control
Homo sapiens [17] = species: Homo sapiens; assay: Binding affinity to phencyclidine receptor (unknown origin) at 10 uM relative to control
[18] = biological target: 5-hydroxytryptamine receptor 1A (Homo sapiens) (UniProt P08908); assay: Binding affinity to recombinant human 5-HT1A receptor at 10 uM after 60 mins by scintillation counting analysis relative to control
[19] = biological target: 5-hydroxytryptamine receptor 2A (Homo sapiens) (UniProt P28223); assay: Binding affinity to recombinant human 5-HT2A receptor at 10 uM after 60 mins by scintillation counting analysis relative to control
[20] = biological target: 5-hydroxytryptamine receptor 7 (Homo sapiens) (UniProt P34969); assay: Binding affinity to recombinant human 5-HT7 receptor at 10 uM after 120 mins by scintillation counting analysis relative to control
Homo sapiens [21] = species: Homo sapiens; assay: Binding affinity to human sigma receptor at 10 uM after 120 mins by scintillation counting analysis relative to control
[22] = biological target: Vasoactive intestinal polypeptide receptor 1 (Homo sapiens) (UniProt P32241); assay: Binding affinity to recombinant human VPAC1 receptor at 10 uM after 60 mins by scintillation counting analysis relative to control
Rattus norvegicus = species: Rattus norvegicus; assay: Binding affinity to rat SKCa channel at 10 uM after 60 mins by scintillation counting analysis relative to control
[23] = biological target: Sodium-dependent noradrenaline transporter (Homo sapiens) (UniProt P23975); assay: Binding affinity to norepinephrine transporter (unknown origin) at 10 uM relative to control
[24] = biological target: cGMP-inhibited 3',5'-cyclic phosphodiesterase 3A (Homo sapiens) (UniProt Q14432); assay: Binding affinity to recombinant human PDE3A at 10 uM after 20 mins by scintillation counting analysis relative to control
[25] = biological target: cGMP-specific 3',5'-cyclic phosphodiesterase (Homo sapiens) (UniProt O76074); assay: Binding affinity to human PDE5 at 10 uM after 60 mins by scintillation counting analysis relative to control
[26] = biological target: Angiotensin-converting enzyme (Homo sapiens) (UniProt P12821); assay: Binding affinity to ACE (unknown origin) at 10 uM relative to control
[27] = biological target: Angiotensin-converting enzyme 2 (Homo sapiens) (UniProt Q9BYF1); assay: Binding affinity to recombinant human ACE-2 at 10 uM after 20 mins by fluorescence assay relative to control
[28] = biological target: Beta-secretase 2 (Homo sapiens) (UniProt Q9Y5Z0); assay: Binding affinity to BACE-2 (unknown origin) at 10 uM relative to control
Homo sapiens [29] = species: Homo sapiens; assay: Binding affinity to elastase (unknown origin) at 10 uM relative to control
[30] = biological target: Procathepsin L (Homo sapiens) (UniProt P07711); assay: Binding affinity to human cathepsin L at 10 uM after 30 mins by fluorescence assay relative to control
[31] = biological target: Matrix metalloproteinase-9 (Homo sapiens) (UniProt P14780); assay: Binding affinity to human MMP9 at 10 uM after 90 mins by fluorescence assay relative to control
Tryptase (Homo sapiens) = Tryptase (Homo sapiens) (UniProt Q9BZJ3+Q15661+Q9NRR2); assay: Binding affinity to human tryptase at 10 uM after 8 mins by spectrophotometric analysis relative to control; format: protein assay
[32] = biological target: MAO-B (amine oxidase [flavin-containing] B) (Homo sapiens, UniProt P27338); assay: Binding affinity to recombinant human MAO-B at 10 uM after 60 mins by luminescence analysis relative to control; conditions: read-out: Activity
[33] = biological target: Kinesin-like protein KIF11 (Homo sapiens) (UniProt P52732); assay: Binding affinity to recombinant human EG5 at 10 uM after 10 mins by spectrophotometric analysis relative to control
[34] = biological target: Histone deacetylase 4 (Homo sapiens) (UniProt P56524); assay: Binding affinity to recombinant human HDAC4 at 10 uM after 30 mins by fluorescence analysis relative to control
[35] = biological target: 3-hydroxy-3-methylglutaryl-coenzyme A reductase (Homo sapiens) (UniProt P04035); assay: Binding affinity to HMG-CoA reductase (unknown origin) at 10 uM by relative to control

Sequence of Kappa-type opioid receptor (Homo sapiens) (P41145 whole entry): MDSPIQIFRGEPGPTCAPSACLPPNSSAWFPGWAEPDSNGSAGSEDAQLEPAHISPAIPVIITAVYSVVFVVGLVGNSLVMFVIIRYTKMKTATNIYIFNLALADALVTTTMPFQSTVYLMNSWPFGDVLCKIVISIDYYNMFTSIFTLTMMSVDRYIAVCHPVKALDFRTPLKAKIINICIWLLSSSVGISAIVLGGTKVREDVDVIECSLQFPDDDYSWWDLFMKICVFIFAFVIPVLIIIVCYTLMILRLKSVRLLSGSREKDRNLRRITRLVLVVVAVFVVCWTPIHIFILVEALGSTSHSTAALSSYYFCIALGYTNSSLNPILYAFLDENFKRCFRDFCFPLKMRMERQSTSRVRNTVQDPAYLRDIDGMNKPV
Sequence of cGMP-inhibited 3',5'-cyclic phosphodiesterase 3A (Homo sapiens) (Q14432 whole entry): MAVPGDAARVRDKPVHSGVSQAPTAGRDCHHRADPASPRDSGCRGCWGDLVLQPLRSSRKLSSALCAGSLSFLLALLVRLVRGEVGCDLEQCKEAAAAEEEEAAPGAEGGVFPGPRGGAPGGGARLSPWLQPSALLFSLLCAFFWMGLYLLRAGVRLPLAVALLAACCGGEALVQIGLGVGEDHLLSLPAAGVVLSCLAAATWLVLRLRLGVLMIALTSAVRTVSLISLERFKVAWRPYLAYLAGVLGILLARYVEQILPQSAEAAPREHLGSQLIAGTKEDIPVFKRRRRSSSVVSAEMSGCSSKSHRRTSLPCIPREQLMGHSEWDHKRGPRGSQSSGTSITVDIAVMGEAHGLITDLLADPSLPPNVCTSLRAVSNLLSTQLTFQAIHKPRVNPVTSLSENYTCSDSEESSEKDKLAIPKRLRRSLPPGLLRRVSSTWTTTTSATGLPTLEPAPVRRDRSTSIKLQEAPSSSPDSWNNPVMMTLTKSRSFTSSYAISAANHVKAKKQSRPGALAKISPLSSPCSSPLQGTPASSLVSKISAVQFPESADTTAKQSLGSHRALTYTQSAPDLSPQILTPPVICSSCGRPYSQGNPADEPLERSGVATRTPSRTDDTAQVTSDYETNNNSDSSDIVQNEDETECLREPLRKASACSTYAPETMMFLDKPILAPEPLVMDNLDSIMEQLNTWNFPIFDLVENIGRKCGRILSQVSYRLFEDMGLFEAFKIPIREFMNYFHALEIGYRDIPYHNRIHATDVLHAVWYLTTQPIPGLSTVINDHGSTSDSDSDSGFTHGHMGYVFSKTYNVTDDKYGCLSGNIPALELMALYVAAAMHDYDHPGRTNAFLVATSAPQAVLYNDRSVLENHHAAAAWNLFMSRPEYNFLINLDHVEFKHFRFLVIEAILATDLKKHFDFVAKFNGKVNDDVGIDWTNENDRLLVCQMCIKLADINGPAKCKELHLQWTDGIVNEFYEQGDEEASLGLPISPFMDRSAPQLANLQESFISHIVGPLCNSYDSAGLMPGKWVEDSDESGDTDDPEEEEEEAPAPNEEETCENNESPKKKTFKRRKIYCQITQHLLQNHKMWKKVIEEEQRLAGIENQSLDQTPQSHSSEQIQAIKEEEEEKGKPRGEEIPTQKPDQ
Sequence of Beta-2 adrenergic receptor (Homo sapiens) (P07550 whole entry, looked up): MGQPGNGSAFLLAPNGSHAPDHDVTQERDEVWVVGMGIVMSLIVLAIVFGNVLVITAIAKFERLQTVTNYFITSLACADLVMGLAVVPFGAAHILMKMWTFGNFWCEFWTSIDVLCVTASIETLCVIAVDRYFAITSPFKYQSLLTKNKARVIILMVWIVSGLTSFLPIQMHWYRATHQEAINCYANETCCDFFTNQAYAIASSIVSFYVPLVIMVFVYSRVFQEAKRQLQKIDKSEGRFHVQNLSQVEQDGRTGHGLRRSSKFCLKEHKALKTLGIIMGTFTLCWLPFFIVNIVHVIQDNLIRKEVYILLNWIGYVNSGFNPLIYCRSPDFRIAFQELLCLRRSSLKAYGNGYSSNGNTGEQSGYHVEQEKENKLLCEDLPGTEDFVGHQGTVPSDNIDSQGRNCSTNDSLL
Sequence of Muscarinic acetylcholine receptor M1 (Homo sapiens) (P11229 whole entry): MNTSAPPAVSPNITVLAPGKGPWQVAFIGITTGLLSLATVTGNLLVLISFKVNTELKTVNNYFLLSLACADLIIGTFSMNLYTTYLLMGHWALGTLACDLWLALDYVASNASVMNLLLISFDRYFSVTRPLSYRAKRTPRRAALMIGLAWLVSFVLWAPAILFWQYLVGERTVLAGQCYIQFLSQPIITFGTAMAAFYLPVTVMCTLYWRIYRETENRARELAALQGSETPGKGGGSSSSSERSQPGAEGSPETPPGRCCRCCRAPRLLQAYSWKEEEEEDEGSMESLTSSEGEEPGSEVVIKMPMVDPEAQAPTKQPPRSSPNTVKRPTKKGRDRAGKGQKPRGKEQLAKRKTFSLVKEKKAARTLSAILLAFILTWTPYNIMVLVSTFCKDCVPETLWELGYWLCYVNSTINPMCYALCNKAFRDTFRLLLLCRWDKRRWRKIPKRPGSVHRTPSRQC
Sequence of MAO-B (amine oxidase [flavin-containing] B) (P27338 whole entry): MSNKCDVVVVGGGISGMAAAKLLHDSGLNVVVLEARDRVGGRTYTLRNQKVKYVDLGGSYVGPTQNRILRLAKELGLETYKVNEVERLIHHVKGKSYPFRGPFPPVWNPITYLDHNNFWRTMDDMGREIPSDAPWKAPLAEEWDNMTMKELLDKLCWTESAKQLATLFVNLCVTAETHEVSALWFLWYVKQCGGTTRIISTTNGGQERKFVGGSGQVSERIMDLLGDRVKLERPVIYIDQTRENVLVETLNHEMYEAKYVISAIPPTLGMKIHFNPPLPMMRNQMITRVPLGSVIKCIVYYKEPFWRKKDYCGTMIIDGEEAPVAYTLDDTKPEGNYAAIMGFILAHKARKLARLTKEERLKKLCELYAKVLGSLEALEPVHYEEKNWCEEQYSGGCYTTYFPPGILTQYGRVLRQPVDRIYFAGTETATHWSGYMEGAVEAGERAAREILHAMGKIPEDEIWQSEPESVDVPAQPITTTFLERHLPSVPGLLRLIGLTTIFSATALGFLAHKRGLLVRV
Sequence of Galanin receptor type 1 (Homo sapiens) (P47211 whole entry): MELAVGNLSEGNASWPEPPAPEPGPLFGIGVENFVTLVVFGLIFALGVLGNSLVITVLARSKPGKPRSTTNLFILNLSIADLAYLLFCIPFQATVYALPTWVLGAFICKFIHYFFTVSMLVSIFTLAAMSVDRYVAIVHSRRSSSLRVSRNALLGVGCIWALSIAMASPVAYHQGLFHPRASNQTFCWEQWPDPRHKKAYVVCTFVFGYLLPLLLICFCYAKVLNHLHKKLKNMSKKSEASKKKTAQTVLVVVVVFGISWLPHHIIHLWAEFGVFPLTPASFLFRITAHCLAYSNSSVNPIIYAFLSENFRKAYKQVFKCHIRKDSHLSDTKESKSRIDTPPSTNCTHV
Sequence of Angiotensin-converting enzyme 2 (Homo sapiens) (Q9BYF1 18-805 limits assumed): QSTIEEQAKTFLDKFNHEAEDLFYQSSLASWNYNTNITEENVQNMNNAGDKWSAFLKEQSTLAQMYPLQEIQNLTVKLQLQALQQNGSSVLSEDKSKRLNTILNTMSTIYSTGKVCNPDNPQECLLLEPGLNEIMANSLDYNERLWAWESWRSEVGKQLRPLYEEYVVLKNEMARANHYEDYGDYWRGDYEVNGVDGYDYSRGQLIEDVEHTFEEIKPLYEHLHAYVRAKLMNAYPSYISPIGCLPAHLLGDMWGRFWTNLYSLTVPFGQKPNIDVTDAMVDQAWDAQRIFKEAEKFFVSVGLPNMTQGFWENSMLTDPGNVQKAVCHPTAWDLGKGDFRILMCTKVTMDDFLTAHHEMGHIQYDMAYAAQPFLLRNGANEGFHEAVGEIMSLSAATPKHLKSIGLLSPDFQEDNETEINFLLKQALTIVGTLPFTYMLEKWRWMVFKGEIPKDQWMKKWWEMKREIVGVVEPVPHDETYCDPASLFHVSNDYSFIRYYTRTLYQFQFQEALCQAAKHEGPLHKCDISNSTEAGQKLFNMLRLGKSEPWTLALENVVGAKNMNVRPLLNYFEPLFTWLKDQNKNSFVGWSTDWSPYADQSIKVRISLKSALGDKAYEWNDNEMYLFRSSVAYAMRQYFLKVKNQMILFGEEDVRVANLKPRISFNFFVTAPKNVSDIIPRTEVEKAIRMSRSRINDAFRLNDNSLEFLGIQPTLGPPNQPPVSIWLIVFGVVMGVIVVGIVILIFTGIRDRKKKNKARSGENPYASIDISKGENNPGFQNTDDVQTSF
Sequence of Neuropeptide Y receptor type 2 (Homo sapiens) (P49146 whole entry): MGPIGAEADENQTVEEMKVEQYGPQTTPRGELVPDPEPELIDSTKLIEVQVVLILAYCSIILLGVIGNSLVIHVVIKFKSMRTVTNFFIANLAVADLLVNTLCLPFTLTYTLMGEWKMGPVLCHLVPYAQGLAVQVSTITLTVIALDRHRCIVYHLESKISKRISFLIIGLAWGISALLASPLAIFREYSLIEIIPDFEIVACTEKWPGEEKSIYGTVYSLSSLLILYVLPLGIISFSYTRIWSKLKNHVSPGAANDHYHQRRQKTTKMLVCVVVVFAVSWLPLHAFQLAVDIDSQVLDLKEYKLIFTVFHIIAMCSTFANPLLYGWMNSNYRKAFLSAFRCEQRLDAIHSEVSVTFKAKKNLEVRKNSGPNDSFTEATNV
Sequence of Pituitary adenylate cyclase-activating polypeptide type I receptor (Homo sapiens) (P41586 21-468 limits assumed): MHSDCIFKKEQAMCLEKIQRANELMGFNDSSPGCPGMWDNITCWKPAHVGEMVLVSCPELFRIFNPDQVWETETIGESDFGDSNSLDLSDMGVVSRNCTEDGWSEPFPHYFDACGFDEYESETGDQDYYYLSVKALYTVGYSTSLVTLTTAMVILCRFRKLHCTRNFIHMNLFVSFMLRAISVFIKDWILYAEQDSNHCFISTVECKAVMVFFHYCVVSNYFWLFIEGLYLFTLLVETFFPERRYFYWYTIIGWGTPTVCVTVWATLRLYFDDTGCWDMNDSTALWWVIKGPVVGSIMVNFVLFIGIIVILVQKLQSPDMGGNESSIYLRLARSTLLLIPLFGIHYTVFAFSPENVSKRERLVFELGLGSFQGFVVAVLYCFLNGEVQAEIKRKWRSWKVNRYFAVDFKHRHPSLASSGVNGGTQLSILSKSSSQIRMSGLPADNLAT

CCOc1c(Cl)cc(C(=O)Nc2ccc(C(=O)O)c(C)c2)cc1OC(C)C
≤ 25%: activity at 10 µM (L-type calcium channel) | activity at 1 h, 10 µM [32]
Non-Toxic: Activity (Salmonella typhimurium [1]) | Activity (Salmonella typhimurium [2]) | Activity (Salmonella typhimurium [3]) | Activity (CHO-K1 [4]) | Activity (CHO-K1 [5])
< 25%: Activity [6] | Activity [7] | Activity [8] | Activity [9] | Activity [10] | Activity [11] | Activity [12] | Activity [13] | Activity [14] | Activity [15] | Activity [16] | Activity (Homo sapiens [17]) | Activity [18] | Activity [19] | Activity [20] | Activity (Homo sapiens [21]) | Activity [22] | Activity (Rattus norvegicus) | Activity [23] | Activity [24] | Activity [25] | Activity [26] | Activity [27] | Activity [28] | Activity (Homo sapiens [29]) | Activity [30] | Activity [31] | Activity (Tryptase (Homo sapiens)) | Activity [33] | Activity [34] | Activity [35]
